Converted amounts (≈) assume the structure as drawn. The source made the active and inactive calls. The calls are words filed in the database; no cut-off is given here.
What was measured:
[1] = biological target: T1, Epoxide hydrolase B (Mycobacterium tuberculosis, UniProt P95276); experiment: Inhibition of Mycobacterium tuberculosis recombinant EphB expressed in Escherichia coli BL21 using CMNPC as substrate after 30 mins by fluorescent assay relative to control
T1 sequence (P95276 whole entry): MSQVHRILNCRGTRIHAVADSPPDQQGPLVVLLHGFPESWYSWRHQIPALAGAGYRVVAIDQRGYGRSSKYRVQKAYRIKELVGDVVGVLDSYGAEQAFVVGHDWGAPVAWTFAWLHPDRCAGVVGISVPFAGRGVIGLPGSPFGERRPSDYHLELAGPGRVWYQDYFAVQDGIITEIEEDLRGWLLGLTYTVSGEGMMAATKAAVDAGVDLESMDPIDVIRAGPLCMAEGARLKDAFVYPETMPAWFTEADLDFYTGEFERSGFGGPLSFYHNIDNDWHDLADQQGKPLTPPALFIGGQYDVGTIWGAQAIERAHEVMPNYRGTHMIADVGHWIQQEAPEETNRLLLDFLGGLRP

[2] = biological target: T2, Bifunctional epoxide hydrolase 2 (Homo sapiens, UniProt P34913); experiment: Inhibition of human recombinant soluble epoxide hydrolase using CMNPC as substrate after 10 mins by fluorescent assay
T2 sequence (P34913 whole entry): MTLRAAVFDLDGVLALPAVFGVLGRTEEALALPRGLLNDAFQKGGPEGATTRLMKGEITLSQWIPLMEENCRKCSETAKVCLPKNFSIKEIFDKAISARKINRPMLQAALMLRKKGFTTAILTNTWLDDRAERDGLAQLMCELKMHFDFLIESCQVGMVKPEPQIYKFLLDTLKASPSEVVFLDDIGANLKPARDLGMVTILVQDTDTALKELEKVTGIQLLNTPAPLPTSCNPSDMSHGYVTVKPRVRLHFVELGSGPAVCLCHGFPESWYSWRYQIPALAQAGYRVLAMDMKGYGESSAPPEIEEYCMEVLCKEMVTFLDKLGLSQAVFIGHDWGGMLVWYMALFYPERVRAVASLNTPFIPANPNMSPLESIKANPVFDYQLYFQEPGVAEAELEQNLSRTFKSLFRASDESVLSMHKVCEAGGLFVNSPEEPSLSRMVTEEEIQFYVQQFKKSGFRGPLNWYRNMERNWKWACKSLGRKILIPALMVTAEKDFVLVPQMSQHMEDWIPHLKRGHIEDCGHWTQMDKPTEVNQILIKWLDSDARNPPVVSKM

[3] = system: Enterococcus faecalis; experiment: Antibacterial activity against Enterococcus faecalis; assay type: functional
[4] = system: Escherichia coli; experiment: Antibacterial activity against Escherichia coli K12; assay type: functional; settings: K-12
[5] = system: Escherichia coli; experiment: Antibacterial activity against Escherichia coli […] TolC; assay type: functional
[6] = system: Enterococcus faecium; experiment: Antibacterial activity against Enterococcus faecium; assay type: functional
[7] = system: Mycobacterium tuberculosis; experiment: microbe, parasite or virus in culture; settings: H37Rv, 168 h
[8] = biological target: T3, Epoxide hydrolase B (Mycobacterium tuberculosis) (UniProt P95276); experiment: Inhibition of Mycobacterium tuberculosis recombinant EphB expressed in Escherichia coli BL21 using CMNPC as substrate at 10 nM after 30 mins by fluorescent assay relative to control
T3 sequence (whole entry): T1 sequence (P95276 whole entry)

[9] = system: Bacillus anthracis; experiment: microbe, parasite or virus in culture
[10] = system: Staphylococcus aureus; experiment: Antibacterial activity against Staphylococcus aureus; assay type: functional
[11] = system: Pseudomonas aeruginosa; experiment: Antibacterial activity against Pseudomonas aeruginosa; assay type: functional
[12] = biological target: T4, Hydrolase, alpha/beta hydrolase fold family (Mycobacterium tuberculosis, UniProt O69638); experiment: Inhibition of Mycobacterium tuberculosis recombinant EphE expressed in Escherichia coli BL21 using CMNPC as substrate after 30 mins by fluorescent assay relative to control
T4 sequence (O69638 whole entry): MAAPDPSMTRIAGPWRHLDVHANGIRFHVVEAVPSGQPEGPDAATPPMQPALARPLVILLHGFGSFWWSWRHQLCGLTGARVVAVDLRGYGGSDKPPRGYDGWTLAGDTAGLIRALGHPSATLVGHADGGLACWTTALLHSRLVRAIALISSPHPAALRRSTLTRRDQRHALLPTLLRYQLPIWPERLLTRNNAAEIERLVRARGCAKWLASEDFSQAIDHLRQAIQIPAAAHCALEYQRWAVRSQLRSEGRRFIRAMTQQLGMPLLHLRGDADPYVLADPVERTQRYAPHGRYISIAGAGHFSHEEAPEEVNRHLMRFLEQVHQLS

[13] = system: Klebsiella pneumoniae; experiment: Antibacterial activity against Klebsiella pneumoniae; assay type: functional
[14] = system: Mycolicibacterium smegmatis; experiment: microbe, parasite or virus in culture; settings: str. MC2 155, 168 h
[15] = biological target: T5, Hydrolase, alpha/beta hydrolase fold family (Mycobacterium tuberculosis) (UniProt O69638); experiment: Inhibition of Mycobacterium tuberculosis recombinant EphE expressed in Escherichia coli BL21 using CMNPC as substrate at 10 nM after 30 mins by fluorescent assay relative to control
T5 sequence (whole entry): T4 sequence (O69638 whole entry)

[16] = system: Vero; experiment: Cytotoxicity against african green monkey Vero cells after 72 hrs by MTT assay; assay type: cell-based; settings: Chlorocebus sabaeus

SMILES | IC50 [1] [nM] | IC50 [2] [nM] | MIC [3] [µg/mL] | MIC [4] [µg/mL] | MIC [5] [µg/mL] | MIC [6] [µg/mL] | MIC [7] [µg/mL] | inhibition [8] | MIC [9] [µg/mL] | MIC [10] [µg/mL] | MIC [11] [µg/mL] | IC50 [12] [nM] | MIC [13] [µg/mL] | MIC [14] [µg/mL] | inhibition [15] [%] | IC50 [16] [µg/mL]
CC(=O)C1CCC(NC(=O)Nc2ccc(OC(F)(F)F)cc2)CC1 (stereo unspecified) | 31600 | 12 |  |  |  |  |  |  |  |  |  |  |  |  |  | 
CC(C)CCOc1ccc(NC(=S)Nc2ccc(OCCC(C)C)cc2)cc1 [TIOCARLIDE] |  |  | > 200 | > 200 | > 200 | > 200 | 2.5 (≈ 6.24 µM) | inactive | > 200 | > 200 | > 200 | 22 | > 200 | > 200 |  | 
O=C(NC1CCCCC1)NC1C2CC3CC(C2)CC1C3 (stereo unspecified) |  | 0.4 | > 200 | > 200 | > 200 | > 200 | 10 (≈ 36.2 µM) | 11.6% | > 200 | > 200 | > 200 |  | > 200 | > 200 | 70.2 | 25 (≈ 90.4 µM)
O=C(NCc1cccc(Cl)c1)Nc1cccc(C(F)(F)F)c1F |  | 3.7 | > 200 | > 200 | > 200 | > 200 | 1.6 (≈ 4.61 µM) | 16.6% | > 200 | > 200 | > 200 |  | > 200 | > 200 | 15.5 | 193 (≈ 557 µM)
CCCNC(=O)NC1C2CC3CC(C2)CC1C3 (stereo unspecified) |  | 61.4 | > 200 | > 200 | > 200 | > 200 | 12.5 (≈ 52.9 µM) | 51.9% | > 200 | > 200 | > 200 |  | > 200 | 200 (≈ 846 µM) | 73.6 | 171 (≈ 723 µM)
